The conditions of assay [1]: literature; cited from earlier work.
The subject of another assay is Ehrlich Carcinoma cells. In words: Cytotoxicity in vitro: 14C precursor incorporation in Ehrlich Carcinoma cells (Example 10). The class given is cell-based. Particulars: Ehrlich, read-out: ID50 (14C incorporation). The source says: (§1) The antineoplastic activity of the compounds of the invention has been investigated by testing the compounds of the chemical group "in vivo" against experimental rodent tumors such as Crocker's sarcoma (S180), solid-type Ehrlich carcinoma (STE), kreb's ascites tumor (Kr2), all maintained in mice H, Gardner lymphosarcoma (LsG, C3H mice), P388 and L1210 leukemias (DBA2 mice), Zajdela ascites hapatoma (ZAH, Wistar rats), Yoshida ascites reticulosarcoma (Y, Wistar rats) and B16 melanoma (C57B16 mice) in experiments according to Jelinek, V. (Neoplasma 12, 469 (1969); ibid. 7, 146 (1960) and "in vitro" experiments using radioactive precursors of nucleic acids and proteins according to Miko, M. et al. (Cancer Res. 39, 4242 (1979); Neoplasma 26, 449 (1979); ibid. 16, 161--1969) with minor modifications (Mattern J.: Studies on the Drug Sensitivity of Short Term Cultured Tumor Cell Suspensions. In "Human Tumors in Short Term Culture" (Dendy, P. P. ed.), p. 301, Academic Press 1976). Therapeutic synergism has been studied by the method of Carter, W. H. et al. (cf. Cancer Res. 42, 2963--1982).
The degree of influence on the incorporation of ^14 C from adenine-^14 C and valine-^14 C to the fraction of Ehrlich Carcinoma cells insoluble in trichloroacetic acid serves as the measure of cytotoxicity. The value ID50 is the concentration of a cytostatic that reduces the ^14 C incorporation down to 50% of the non-influencedcontrol cells.

For assay [2], the system named is Yoshida tumor. In words: Survival of rats with implanted Yoshida tumor (Example 6). The class given is in vivo, female Wistar rats. Particulars: Wistar rats.
Excerpt: as §1
(§2) Additionally, the compounds of the present invention are useful in increasing survival time of the suitable biological subjects, namely mice and rats bearing tumors STE, ZAH and/or Y: because of the lethal nature of the test system employed, the antitumor effect of the compounds is illustrated by a side comparison of the survival time of treated animals (survival for a longer time) with the untreated control groups of animals (cf. Examples 5, 6, and 7). In these typical experiments, ten animals are in the experimental groups, and the treated groups of animals survive for a longer time than the untreated controls.
(§3) Fifty infantile female Wistar rats weighing approximately 60 g are divided into five groups: one control and four experimental ones, 10 animals each. A lethal dose of the tumor ascites from Zajdel ascitic hepatoma is implanted intraperitoneally in all the animals. The experimental groups are treated with the substance Ia in water suspension. The suspension contains the substance Ia in such an amount that a dose of 0.4 or 0.2 ml of the suspension p.o. is equal to a dose of 200 or 100 mg Ia/Kg. This dose is applied to the experimental animals once a day, five times altogether, starting on the first day after the implantation.

The subject of assay [3] is Yoshida tumor. The assay is described as follows: Survival of rats with implanted Yoshida tumor (Example 7). In kind it is in vivo, female Wistar rats. The note with it: Wistar rats.
Excerpt: as §1, §2, §3

Assay [4] concerns Yoshida ascitic tumor cells. The assay is described as follows: Cytotoxicity in vitro: initial velocity of 3H/14C precursor incorporation in Yoshida ascitic tumor cells (Example 11). In kind it is cell-based. The note with it: Rattus norvegicus, YOSHIDA.
Excerpt: as §1
(§4) In analogous experiments, the degree of influence on the initial velocity of the incorporation of ^3 H from 5-iodo-2'-deoxy-(6-^3 H)uridine or that of ^14 C from a mixture of L-(U-^14 C)-aminoacids to the fraction of Yoshida ascitic tumor cells insoluble in trichloroacetic acid serves as the measure of cytotoxicity. The value IC50 is the concentration of a substance that reduces the initial velocity of the ^3 H or ^14 C incorporation down to 50% of the noninfluenced control cells.

For a further assay, the system named is Zajdel ascitic hepatoma. The assay is described as follows: Survival of rats with implanted Zajdel ascitic hepatoma, comparison with 6-mercaptopurine (Example 8). In kind it is in vivo, female Wistar rats. The note with it: for Period of survival (% of control): Wistar rats.
Excerpt: as §1, §3

In a further assay the test system is tumor cells. In words: Comparison of cytotoxicity of Ia and Ib in vitro, precursor incorporation (Example 12). In kind it is cell-based.
Excerpt: as §1, §4
In analogous experiments, the following values of IC50 were determined: […]

Another assay concerns Ehrlich tumor (STE). The assay is described as follows: Antitumor activity against implanted Ehrlich tumor (STE) in mice, tumor weight (Example 4). The note with it: mice H. In kind it is in vivo, female mice H.
Excerpt: as §1
Sixty female mice H weighing approximately 20 g are divided into three groups: one control group and two experimental groups of 20 animals each. A lethal dose of the Crocker tumor (S180) homogenate is implanted subcutaneously in all the animals. The experimental groups are treated with the substance Ia in water suspension. The suspension contains the substance Ia in such an amount that a dose 0.4 or 0.2 ml of the suspension p.o. is equal to a dose 200 or 100 mg Ia/kg. This dose is administered to the experimental animals once a day, eight times altogether, starting on the fifth day after the implantation. On the fourteenth day after the implantation, a half of the animals in each group is sacrificed in ether anaesthesia, and tumors are removed and weighed. The remaining animals are left to monitor the time of death.

A further assay relates to Yoshida ascitic sarcoma. In words: Therapeutic synergism with Benfluron, survival of rats with Yoshida ascitic sarcoma (Example 9). Particulars: for Average period of survival (days): geometric average (fiducial limits P=0.95). The class given is in vivo, female Wistar rats.
Excerpt: as §1
One hundred and twenty seven infantile female Wistar rats weighing 50-60 g are divided into sixteen groups: one control group of 25 animals and fifteen experimental groups of 6 to 7 animals. A lethal dose of the tumor ascites from Yoshida ascitic sarcoma is implanted intraperitoneally in all the animals. The experimental groups are treated with the substance Ia in water suspension, water solution of a cytostatic Benfluron (CAS 80427-58-3), or a combination of both the substances. The suspension or solution contains the substances in such a concentration that doses of 0.4 or 0.2 and 0.1 ml of the suspension/solution p.o. are equal to doses of 200 or 100 and 50 mg Ia/kg or to doses of 160, 80 or 40 mg of Benfluron/kg. Doses of the substance Ia are administered to the experimental animals once a day, four times altogether, starting on the first day after the tumor implantation. Benfluron is administered only once, on the fourth day after the tumor implantation, 7 hours after the last dose of the substance Ia.

SMILES strings stand for the structures. Entries after “also recorded” stand apart in the source; their conditions may differ. Where two headings read alike, the source gives them in different places. Where only a bound is given, the exact number is not on record here.

As to `Nc1ncnc2c1ncn2C(=O)NCCCl` [N-(2-chloroethyl)-6-aminopurine-9-carboxamide], in assay [1], the biological activity result is recorded as “did not exhibit any biological activity”.

Take `Nc1nc(S)c2[nH]cnc2n1` [2-amino-6-mercaptopurine, 2-Amino-6-mercaptopurine, reference compound]: the IC50 with Ehrlich Carcinoma cells (precursor adenine-14C) and in the assay on Ehrlich Carcinoma cells (precursor valine-14C) was greater than 600 µM each time.

As for `Sc1ncnc2nc[nH]c12` [6-mercaptopurine, reference compound], the “Period of survival (% of control)” value in the assay on Yoshida tumor [2] (p.o. 5 × 20 mg/kg (Example 6)) is 109 % of control; in the assay with Yoshida tumor [2] (p.o. 5 × 40 mg/kg (Example 6)) it was 127 % of control; in the assay on Yoshida tumor [3] (p.o. 5 × 20 mg/kg (Example 7)), 107 % of control; with Yoshida tumor [3] (p.o. 5 × 40 mg/kg (Example 7)), 156 % of control; in the assay with Zajdel ascitic hepatoma (p.o. 5 × 20 mg/kg (Example 8)), 101 % of control; in the assay on Zajdel ascitic hepatoma (p.o. 5 × 40 mg/kg (Example 8)), 105 % of control. The IC50 in assay [4] (precursor 5-iodo-2'-deoxy(6-3H)uridine, read-out: IC50 (initial velocity of 3H incorporation)) was greater than 10000 µM; in assay [4] (precursor L-(U-14C)aminoacids, read-out: IC50 (initial velocity of 14C incorporation)) it was greater than 229 µM. Besides, the “antitumor effect / average period of survival vs non-treated control” value in the assay with Zajdel ascitic hepatoma (in words (Example 8)) is “ineffective; also recorded: inactive”.

Take `O=C(NCCCl)Oc1ncnc2nc[nH]c12` [Substance Ib, 6-[N-(2-Chloroethyl)carbamoyl]oxypurine]: the “Period of survival (% of control)” value is recorded as 100 % of control in the assay with Yoshida tumor [2] (p.o. 5 × 100 mg/kg (Example 6)) and 83 % of control with Yoshida tumor [2] (p.o. 5 × 200 mg/kg (Example 6)). Besides, the values for the IC50 with tumor cells (precursor 5-iodo-2'-deoxy(6-3H)uridine (Example 12)) and in the assay with tumor cells (precursor L-(U-14C)aminoacids (Example 12)) were 55 µM and 80 µM, respectively. The “Tumor weight (% of control)” value in the assay on Ehrlich tumor (STE) (p.o. 8 × 100 mg/kg) is recorded as 76 % of control; in the assay on Ehrlich tumor (STE) (p.o. 8 × 200 mg/kg), 81 % of control.

Consider `CN(C)CCOc1cc2c(c3ccccc13)-c1ccccc1C2=O.Cl` [Benfluron, 5-[2-(N, N-Dimethylamino)ethoxy]-7-oxo-7H-benzo(c)fluorene hydrochloride, reference compound], for which the figures for the “Average period of survival (% of control)” value in the assay with Yoshida ascitic sarcoma (Benfluron 40 mg/kg p.o. once), in the assay on Yoshida ascitic sarcoma (Benfluron 80 mg/kg p.o. once) and with Yoshida ascitic sarcoma (Benfluron 160 mg/kg p.o. once) were 104 % of control, 104 % of control and 106 % of control, respectively. Also, the “Average period of survival (days)” value in the assay with Yoshida ascitic sarcoma (Benfluron 40 mg/kg p.o. once) is on record as 7.67 (6.9; 8.6) days; with Yoshida ascitic sarcoma (Benfluron 80 mg/kg p.o. once), 7.61 (6.5; 8.9) days; with Yoshida ascitic sarcoma (Benfluron 160 mg/kg p.o. once), 7.79 (6.9; 8.8) days.

Take `CCN(CC)C(=O)Nc1ncnc2nc[nH]c12` [N-(6-purinyl)-N', N'-diethylurea]: the antineoplastic action result in assay [1] is “weak antineoplastic action”.

(Values after patent US4720497A, “6-purinyl N-/2-chloroethyl/carbamate and thiocarbamate and process for the preparation thereof” (SPOFA, Spojene Podniky pro Zdravotnickou Vyrobu, priority 1984, dated 1988).)
